Data from patent US11702429B2, “mTORC modulators and uses thereof” (Aeovian Pharmaceuticals, Inc., priority 2019, dated 2023).
Where two headings read alike, the source gives them in different places.

Key:
[1] = biological target: T1, mTORC1 (Homo sapiens, UniProt P42345+P62942); experiment: Inhibition assay for mTORC1: phosphorylation of pS6K at Thr389, AlphaLISA in PC3 cells; assay type: cell-based; conditions: for IC50: read-out: pIC50 mTORC1 (converted)
T1 construct: endogenous in cells; host or cells: PC3 cells (human prostate adenocarcinoma)
Experimental: (§1) The IC50s of the inhibition of mTORC1 and mTORC2 were determined in vitro by determining the phosphorylation of pS6K at position Thr389 (mTORC1 inhibition) and pAkt at Ser473 (mTORC2 inhibition). In vitro studies were performed with AlphaLISA® technology using PC3 cells (Prostate Adenocarcinoma; Human (Homo sapiens)). The cells were seeded in 96 well plates and were treated for 24 hours with the different compounds. […] All analysis were performed using GraphPad Prism 7.0 (GraphPad Software, San Diego, USA).

[2] = biological target: T2, mTORC2 (Homo sapiens, UniProt P42345+P62942); experiment: Inhibition assay for mTORC2: phosphorylation of pAkt at Ser473, AlphaLISA in PC3 cells; assay type: cell-based; conditions: for IC50: read-out: pIC50 mTORC2 (converted)
T2 construct: endogenous in cells; host or cells: PC3 cells (human prostate adenocarcinoma)
Experimental: as §1

[3] = PC3 cells, treated 24 hours, pS6K Thr389, AlphaLISA, C16 diastereomer mixtures not separated
[4] = PC3 cells, treated 24 hours, pAkt Ser473, AlphaLISA, C16 diastereomer mixtures not separated

T2 sequence (P62942 2-108 limits assumed, other chains not shown): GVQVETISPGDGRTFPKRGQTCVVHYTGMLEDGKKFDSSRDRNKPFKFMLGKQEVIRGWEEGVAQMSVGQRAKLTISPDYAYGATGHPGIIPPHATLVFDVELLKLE

Q: What does the source list for `CO[C@@H]1C[C@H](C[C@@H](C)[C@@H]2CC(=O)[C@H](C)/C=C(\C)[C@@H](O)[C@@H](OC)C(=O)[C@H](C)C[C@H](C)/C=C/C=C/C=C(\C)C(OCCO)C[C@@H]3CC[C@@H](C)[C@@](O)(O3)C(=O)C(=O)N3CCCC[C@H]3C(=O)O2)CC[C@H]1OCCN1CCCCC1` (mixture of isomers) [Compound 61]?
A: IC50 [1, 3]: 0.316 to 3.16 nM; IC50 [2, 4]: > 10000 nM

Q: What does the source list for `COC1C[C@@H]2CC[C@@H](C)[C@@](O)(O2)C(=O)C(=O)N2CCCCC2C(=O)O[C@H]([C@H](C)C[C@@H]2CC[C@@H](OC(=O)N(C)CCCN(C)C)[C@H](OC)C2)CC(=O)[C@H](C)/C=C(\C)[C@@H](O)[C@@H](OC)C(=O)[C@H](C)C[C@H](C)/C=C/C=C/C=C/1C` (stereo partly shown) [Compound 321]?
A: IC50 [1]: < 0.316 nM; IC50 [2]: < 1000 nM

Q: With `COCCOC1C[C@@H]2CC[C@@H](C)[C@@](O)(O2)C(=O)C(=O)N2CCCC[C@H]2C(=O)O[C@H]([C@H](C)C[C@@H]2CC[C@@H](OCCCN3CCN(C(C)C)CC3)[C@H](OC)C2)CC(=O)[C@H](C)/C=C(\C)[C@@H](O)[C@@H](OC)C(=O)[C@H](C)C[C@H](C)/C=C/C=C/C=C/1C` (mixture of isomers) [Compound 39] as the molecule, how does the IC50 [1, 3] read?
A: Its IC50 is under 0.316 nM.

Q: And the IC50 [2, 4]?
A: The IC50 was 1000 to 10000 nM.

Q: For `COC1C[C@@H]2CC[C@@H](C)[C@@](O)(O2)C(=O)C(=O)N2CCCCC2C(=O)O[C@H]([C@H](C)C[C@@H]2CC[C@@H](OC(=O)NCCO)[C@H](OC)C2)CC(=O)[C@H](C)/C=C(\C)[C@@H](O)[C@@H](OC)C(=O)[C@H](C)C[C@H](C)/C=C/C=C/C=C/1C` (stereo partly shown) [Compound 362], which IC50 [1] is on record?
A: The IC50 was under 0.316 nM.

Q: And the IC50 [2]?
A: The IC50 was under 1000 nM.

Q: What does the source list for `COC1C[C@@H]2CC[C@@H](C)[C@@](O)(O2)C(=O)C(=O)N2CCCCC2C(=O)O[C@H]([C@H](C)C[C@@H]2CC[C@@H](OCCO)[C@H](OC)C2)CC(=O)[C@H](C)/C=C(\C)[C@@H](O)[C@@H](OC)C(=O)[C@H](C)C[C@H](C)/C=C/C=C/C=C/1C` (stereo partly shown) [Compound 306]?
A: IC50 [1]: < 0.316 nM; IC50 [2]: < 1000 nM

Q: Which results are given for `CO[C@@H]1C[C@H](C[C@@H](C)[C@@H]2CC(=O)[C@H](C)/C=C(\C)[C@@H](O)[C@@H](OC)C(=O)[C@H](C)C[C@H](C)/C=C/C=C/C=C(\C)C(c3ccc(C)s3)C[C@@H]3CC[C@@H](C)[C@@](O)(O3)C(=O)C(=O)N3CCCCC3C(=O)O2)CC[C@H]1O` (stereo partly shown) [Compound 202]?
A: IC50 [1]: > 3.16 nM; IC50 [2]: 1000 to 10000 nM

Q: What does the source list for `COCCOC1CC2CCC(C)C(O)(O2)C(=O)C(=O)N2CCCCC2C(=O)OC(C(C)CC2CCC(OCC(O)CO)C(OC)C2)CC(=O)C(C)C=C(C)C(O)C(OC)C(=O)C(C)CC(C)C=CC=CC=C1C` (stereo not shown) [Compound 45]?
A: pIC50 mTORC1 [1, 3]: A (pIC50 for mTORC1 of >9.5 as A); pIC50 mTORC2 [2, 4]: B (5 to 6 as B)

Q: `COC1CC2CCC(C)C(O)(O2)C(=O)C(=O)N2CCCCC2C(=O)OC(C(C)CC2CCC(OCCCN3CCCC(O)C3)C(OC)C2)CC(=O)C(C)C=C(C)C(O)C(OC)C(=O)C(C)CC(C)C=CC=CC=C1C` (stereo not shown) [Compound 340] was tested. Which IC50 [1] did it give?
A: Its IC50 is under 0.316 nM.

Q: What about the IC50 [2] of the same molecule?
A: Its IC50 is under 1000 nM.

Q: What does the source list for `CO[C@@H]1C[C@H](C[C@@H](C)[C@@H]2CC(=O)[C@H](C)/C=C(\C)[C@@H](O)[C@@H](OC)C(=O)[C@H](C)C[C@H](C)/C=C/C=C/C=C(\C)C(OCCc3ccccc3)C[C@@H]3CC[C@@H](C)[C@@](O)(O3)C(=O)C(=O)N3CCCCC3C(=O)O2)CC[C@H]1O` (stereo partly shown) [Compound 211]?
A: IC50 [1]: < 0.316 nM; IC50 [2]: < 1000 nM

Q: With `COC1C[C@@H]2CC[C@@H](C)[C@@](O)(O2)C(=O)C(=O)N2CCCCC2C(=O)O[C@H]([C@H](C)C[C@@H]2CC[C@@H](OC(=O)NCCc3ccncc3)[C@H](OC)C2)CC(=O)[C@H](C)/C=C(\C)[C@@H](O)[C@@H](OC)C(=O)[C@H](C)C[C@H](C)/C=C/C=C/C=C/1C` (stereo partly shown) [Compound 334] as the molecule, how does the IC50 [1] read?
A: Its IC50 is under 0.316 nM.

Q: What about the IC50 [2] of the same molecule?
A: The IC50 was under 1000 nM.

Q: For `COCCCOC1C[C@@H]2CC[C@@H](C)[C@@](O)(O2)C(=O)C(=O)N2CCCCC2C(=O)O[C@H]([C@H](C)C[C@@H]2CC[C@@H](O)[C@H](OC)C2)CC(=O)[C@H](C)/C=C(\C)[C@@H](O)[C@@H](OC)C(=O)[C@H](C)C[C@H](C)/C=C/C=C/C=C/1C` (stereo partly shown) [Compound 225], which IC50 [1] is on record?
A: The IC50 was under 0.316 nM.

Q: What about the IC50 [2] of the same molecule?
A: The IC50 was 1000 to 10000 nM.
